This assay deals with microglial cells activated by LPS. Put plainly: Release of TNF-α (ELISA) in LPS-activated microglial cell cultures. Format: cell-based. Conditions: microglia treated with 0.01 μg/ml LPS; 24 h activation; tested at 10^-5, 10^-6, 10^-7 M. How it is done:
2. Measurement of the Release of TNF-α
The expression of the TNF-a represents a parameter for microglial activation often analyzed in the literature. […] A 24 hrs activation by LPS leads to a high increase in the level of TNF-α expression detectable by the ELISA test.
In the experiments, the concentrations of TNF-α in the microglial cell cultures, treated with 0.01 μg/ml of LPS in the presence of TFA-10, TFA-12, TFA-14, TFA-16 and vitamin E, at concentrations of 10^−5, 10^−6 and 10^−7 M, were measured by the inventors after 24 hours activation.
On the technique in general: An ELISA detects its analyte on a solid surface through an enzyme-linked reagent.

With vitamin E, the “activity on TNF-α production, in words” value is “no activity”.

The values are drawn from patent US7691900B2, “Tocopherol derivatives with a long hydroxylated chain, which can be used as neurotrophics” (AxoGlia Therapeutics S.A., priority 2003, dated 2010).
